Patent publication US20230285417A1, “FORMULATIONS OF 19-NOR C3,3-DISUBSTITUTED C21-N-PYRAZOLYL STEROID AND METHODS OF USE THEREOF” (priority 2020, published 2023)

How the values were obtained:
Assay type in all cases: physicochemical
[1] = Solubility of the compound of formula (I) in aqueous media (water, pH 1.2 simulated gastric fluid, FaSSIF)
Text: (§1) The compound of formula (I) belongs in the high permeability, poor solubility drug classification (BCS 2) described in the Biopharmaceutics Classification System (BCS). In the improved widely accepted Developability Classification System (DCS) discussed by Butler and Dressman, the high permeability low solubility category is further divided into two classifications. Specifically, the ratio of the dose to the solubility of the drug in FaSSIF can be used to predict the extent of human absorption. Class 2a describes compounds that have good permeability and poor solubility with a smaller dose to solubility ratio. Class 2b describes compounds that have a higher dose to solubility ratio and likely will be incompletely absorbed unless the drug is formulated in an already solubilized form, and therefore might present a major challenge to the formulator. […] That is, even for a dose of 10 mg about only 1.2% of the dose of the drug may dissolve in a glass of water or FaSSIF. For Class 2b compounds the system predicts that particle reduction should have no impact on bioavailability. Martinez and Amidon offer: “In the case of solubility-limited absorption particle size exerts minimal effect on the fraction of drug absorbed. […]

[2] = Biopharmaceutics Classification System (BCS) classification; settings: high permeability, poor solubility
Text: as §1

[3] = Particle size distribution by laser diffraction (Malvern Mastersizer 2000); settings: for D10 / D50 / D90: lot of micronized Form C of Compound 1 used in capsules of Table 16
Protocol: The particle size distribution of Compound 1 was measured using a laser diffraction method. A sample of Compound 1 was either dispersed in water or wetted and dispersed in 0.2% w/v Tween 80 in water to a final concentration spanning approximately 2.5 to 60 mg/mL. Using a Malvern Mastersizer 2000 with a Hydro 2000S sample dispersion unit the obscuration was adjusted to between 10 and 30%. The stir speed was adjusted to 2250-2500 rpm, pre-measurement delay to approximately 30 s, sample measurement time to around 10-15 s, background measurement time to around 10-15 s and the particle shape assumed to be irregular. The samples were at a concentration between 0.0032-0.0044% vol and had specific surface area between 1.65 and 2.10 m2/g, a surface weighted mean between 2.87 and 3.64 μm, and a volume weighed mean between 3.62 and 4.67 μm. The measurements were obtained using the Mie scattering model (material refractive index=1.520, dispersant refractive index=1.330, absorption=0.001 or 0.1) with normal sensitivity.
Representative particle size distribution data for lots of un-micronized and micronized Form C of Compound 1 are shown in Table 7. In addition, representative particle size distribution for micronized Form A of Compound 1 is also included in Table 7. FIG. 4A, FIG. 4B and FIG. 4C also contain particle size distribution profiles for three representative lots of micronized Form C of Compound 1. FIG. 13A and FIG. 13B contain particle size distribution profiles for micronized and un-micronized Form C of Compound 1a. FIG. 14A and FIG. 14B contain particle size distribution profiles for micronized and un-micronized Form C of Compound 1b. FIG. 15A and FIG. 15B contain particle size distribution profiles for micronized and un-micronized Form C of Compound 1c. FIG. 16A and FIG. 16B contain particle size distribution profiles for micronized and un-micronized Form C of Compound 1d.

[4] = lot used in Composition 30, 8 kg blend batch, 20 mg dose strength
[5] = lot used in Composition 30, 12 kg blend batch, 30 mg dose strength
[6] = lot used in Composition 30, 34.7 kg blend batch, 20 mg dose strength
[7] = lot used in Composition 30, 52 kg blend batch, 30 mg dose strength

With `C[C@@]1(O)CC[C@H]2[C@H](CC[C@@H]3[C@@H]2CC[C@]2(C)[C@@H](C(=O)Cn4cc(C#N)cn4)CC[C@@H]32)C1` [Compound 1, 1-(2-((3R,5R,8R,9R,10S,13S,14S,17S)-3-hydroxy-3,13-dimethylhexadecahydro-1H-cyclopenta[a]phenanthren-17-yl)-2-oxoethyl)-1H-pyrazole-4-carbonitrile] the “% of the dose that may dissolve in a glass of water or FaSSIF” value ([1]; 10 mg dose) was about 1.2%, the “solubility in aqueous media” value ([1]; water, pH 1.2 simulated gastric fluid, FaSSIF) was “practically insoluble” and the “drug classification, Biopharmaceutics Classification System (BCS)” value [2] was “BCS 2”.

In the case of `C[C@@]1(O)CC[C@H]2[C@H](CC[C@@H]3[C@@H]2CC[C@]2(C)[C@@H](C(=O)Cn4cc(C#N)cn4)CC[C@@H]32)C1` [Lot A], the D10 ([3]; listed as A) is reported as 1.7 μm, the D50 ([3]; listed as A) is reported as 3.3 μm and the D90 ([3]; listed as A) is reported as 6.8 μm.

For `C[C@@]1(O)CC[C@H]2[C@H](CC[C@@H]3[C@@H]2CC[C@]2(C)[C@@H](C(=O)Cn4cc(C#N)cn4)CC[C@@H]32)C1` [Lot B], the D10 ([3]; listed as B) was 1.9 μm, the D50 ([3]; listed as B) was 3.5 μm and the D90 ([3]; listed as B) was 6.6 μm.

In the case of `C[C@@]1(O)CC[C@H]2[C@H](CC[C@@H]3[C@@H]2CC[C@]2(C)[C@@H](C(=O)Cn4cc(C#N)cn4)CC[C@@H]32)C1` [Lot C], the D10 ([3]; listed as C) is reported as 2.1 μm, the D50 ([3]; listed as C) is reported as 4.0 μm and the D90 ([3]; listed as C) is reported as 7.7 μm.

With `C[C@@]1(O)CC[C@H]2[C@H](CC[C@@H]3[C@@H]2CC[C@]2(C)[C@@H](C(=O)Cn4cc(C#N)cn4)CC[C@@H]32)C1` [Micronized Form C of Compound 1] the “Particle Size Distribution D10” value [3, 4] was 1.7, the “Particle Size Distribution D50” value [3, 4] was 3.2 and the “Particle Size Distribution D90” value [3, 4] was 6.1. The “Particle Size Distribution D10” value [3, 5] was 1.7, the “Particle Size Distribution D50” value [3, 5] was 3.2 and the “Particle Size Distribution D90” value [3, 5] was 6.1. The “Particle Size Distribution D10” value [3, 6] was 1.8, the “Particle Size Distribution D50” value [3, 6] was 3.3 and the “Particle Size Distribution D90” value [3, 6] was 6.5. The “Particle Size Distribution D10” value [3, 7] was 2.1, the “Particle Size Distribution D50” value [3, 7] was 4.1 and the “Particle Size Distribution D90” value [3, 7] was 8.0.
